The values below are quoted from earlier work in US20180318450A1, “ENHANCED SURGICAL VISUALIZATION OF VIABLE TISSUE WITH SELECTIVE DYE” (priority 2017, published 2018).

The test system of this series is tumor proliferation. The conditions noted are these: toxin attached to C-terminus of ph low insertion peptide, cells in acidic environment.

Starred links: 1 amine or outer side, 2 acyl side, 3 side chain; linkers in the order of their positions; H or OH if unused. Positions of bridges follow the written chain, without caps; N, C: chain ends. Non-standard residues stand in square brackets, D forms with d. Residues, ends and D or L forms follow the SMILES beside them. Trp(2-yl) = O=C([C@H](Cc1c([*:3])[nH]c2ccccc12)N[*:1])[*:2]; Leu(4R-OH,5-OH) = C[C@](O)(CO)C[C@H](N)C(=O)O; cisHyp = O=C(O)[C@@H]1C[C@H](O)CN1

`C[C@@H]1NC(=O)[C@H](C[C@@](C)(O)CO)NC(=O)[C@@H]2Cc3c([nH]c4ccccc34)SC[C@H](NC(=O)[C@@H]([C@H](C)O)NC1=O)C(=O)N1C[C@@H](O)C[C@H]1C(=O)N[C@@H](C)C(=O)N2` [phalloidin] (cyclo(A[dT]C[cisHyp]A[Trp(2-yl)][Leu(4R-OH,5-OH)]); thioether 3-6): the tumor proliferation entry was “prohibited tumor proliferation”.
